Source: patent US8637657B2, “Siderophore-mediated iron uptake in bacterial infection” (priority 2008, dated 2014)
Entries after “also recorded” stand apart in the source; their conditions may differ.

Key:
[1] = biological target: T1, SbnF (Staphylococcus aureus, UniProt Q2G1M8); assay: hydroxylamine trapping (hydroxamate formation) assay, SbnF; assay type: biochemical, S. aureus; settings: 5 μM enzyme
T1 construct: 6xHis; made in house; host or cells: E. coli BL21 (DE3)
T1 sequence (Q2G1M8 25-616 limits assumed): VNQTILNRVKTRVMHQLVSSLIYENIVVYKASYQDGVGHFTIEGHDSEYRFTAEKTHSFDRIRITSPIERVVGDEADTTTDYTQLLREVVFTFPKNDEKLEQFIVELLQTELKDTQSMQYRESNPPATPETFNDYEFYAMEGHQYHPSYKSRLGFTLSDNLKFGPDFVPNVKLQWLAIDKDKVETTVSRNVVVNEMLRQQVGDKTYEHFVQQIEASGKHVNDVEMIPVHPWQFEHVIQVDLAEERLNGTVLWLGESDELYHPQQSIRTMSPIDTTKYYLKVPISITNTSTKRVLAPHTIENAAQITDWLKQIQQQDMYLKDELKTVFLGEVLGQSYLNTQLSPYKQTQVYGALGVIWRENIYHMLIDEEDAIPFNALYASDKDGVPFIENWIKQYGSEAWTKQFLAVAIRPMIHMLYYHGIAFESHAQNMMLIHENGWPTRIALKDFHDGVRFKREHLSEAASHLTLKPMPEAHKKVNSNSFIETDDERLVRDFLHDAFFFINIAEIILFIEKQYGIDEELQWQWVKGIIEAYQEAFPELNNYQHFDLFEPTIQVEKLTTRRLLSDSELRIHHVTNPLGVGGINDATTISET
Procedure: All reactions were performed in 300 μL volumes and the following were common to each reaction: 2.25 mM ATP, 15 mM MgCl2, 150 mM hydroxylamine, and 50 mM HEPES pH 7.4. […] Similarly, to assess which enzyme utilized α-KG as a substrate, 5 μM of SbnC, SbnE, or SbnF were incubated with 3 mM α-KG and the common reaction components. […] This reaction was then heat treated at 70° C. to deactivate SbnE and the reaction was then centrifuged at 14 500 rpm for 10 minutes to pellet precipitated enzyme. The supernatant which now contains the citryl-Dae intermediate was incubated with fresh 5 μM SbnF or SbnC, 2.25 mM ATP, and 150 mM hydroxylamine. To assess the potential recognition of citryl-Dap as a substrate for SbnF or SbnC, this intermediate was formed as described above except that Dae was replaced with 50 mM Dap instead. For each reaction, a duplicate control reaction was prepared in which the enzyme was previously inactivated by heating at 100° C. for 10 minutes. All reactions described above were incubated at room temperature in the dark for 1 hour before addition of 300 μL stopping solution which consisted of 10% (w/v) FeCl3 and 3.3% (w/v) trichloroacetic acid in 0.7 M HCl. Reactions were centrifuged at 20 000×g for 5 minutes to remove precipitate and the formation of ferric hydroxamate was detected spectrophotometrically at 540 nm. Relative absorbance values reported in this study were calculated by subtracting the absorbance of the control (boiled enzyme) reactions from the absorbance of experimental reactions.

[2] = biological target: T2, SbnE (Staphylococcus aureus, UniProt Q2G1M9); assay: hydroxylamine trapping (hydroxamate formation) assay, SbnE; assay type: biochemical, S. aureus; settings: 5 μM enzyme, 3 mM substrate
T2 construct: 6xHis; made in house; host or cells: E. coli BL21 (DE3)
T2 sequence (Q2G1M9 whole entry): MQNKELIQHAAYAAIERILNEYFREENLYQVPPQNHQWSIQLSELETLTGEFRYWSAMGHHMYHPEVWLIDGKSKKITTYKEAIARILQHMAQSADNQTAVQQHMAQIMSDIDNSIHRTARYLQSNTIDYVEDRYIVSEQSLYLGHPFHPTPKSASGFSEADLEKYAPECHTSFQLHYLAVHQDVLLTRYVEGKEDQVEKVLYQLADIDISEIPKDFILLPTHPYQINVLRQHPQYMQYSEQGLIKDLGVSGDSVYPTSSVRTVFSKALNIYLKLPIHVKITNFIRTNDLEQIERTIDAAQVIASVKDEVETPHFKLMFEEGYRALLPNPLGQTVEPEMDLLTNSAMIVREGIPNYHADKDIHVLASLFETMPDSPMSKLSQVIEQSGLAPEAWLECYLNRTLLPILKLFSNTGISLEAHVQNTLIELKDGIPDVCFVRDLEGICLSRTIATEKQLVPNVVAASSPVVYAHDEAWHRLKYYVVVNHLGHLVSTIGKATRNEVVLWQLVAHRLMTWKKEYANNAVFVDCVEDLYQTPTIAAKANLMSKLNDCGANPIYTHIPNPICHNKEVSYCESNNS
Procedure: All reactions were performed in 300 μL volumes and the following were common to each reaction: 2.25 mM ATP, 15 mM MgCl2, 150 mM hydroxylamine, and 50 mM HEPES pH 7.4. […] The supernatant which now contains the citryl-Dae intermediate was incubated with fresh 5 μM SbnF or SbnC, 2.25 mM ATP, and 150 mM hydroxylamine. To assess the potential recognition of citryl-Dap as a substrate for SbnF or SbnC, this intermediate was formed as described above except that Dae was replaced with 50 mM Dap instead. For each reaction, a duplicate control reaction was prepared in which the enzyme was previously inactivated by heating at 100° C. for 10 minutes. All reactions described above were incubated at room temperature in the dark for 1 hour before addition of 300 μL stopping solution which consisted of 10% (w/v) FeCl3 and 3.3% (w/v) trichloroacetic acid in 0.7 M HCl. Reactions were centrifuged at 20 000×g for 5 minutes to remove precipitate and the formation of ferric hydroxamate was detected spectrophotometrically at 540 nm. Relative absorbance values reported in this study were calculated by subtracting the absorbance of the control (boiled enzyme) reactions from the absorbance of experimental reactions.
Essentially, this assay is used to monitor the specific activity of a synthetase towards a particular carboxylic acid.

[3] = biological target: T3, SbnC (Staphylococcus aureus, UniProt Q2G1N1); assay: hydroxylamine trapping (hydroxamate formation) assay, SbnC; assay type: biochemical, S. aureus; settings: 5 μM enzyme, 3 mM substrate
T3 construct: 6xHis; made in house; host or cells: E. coli BL21 (DE3)
T3 sequence (Q2G1N1 1-584): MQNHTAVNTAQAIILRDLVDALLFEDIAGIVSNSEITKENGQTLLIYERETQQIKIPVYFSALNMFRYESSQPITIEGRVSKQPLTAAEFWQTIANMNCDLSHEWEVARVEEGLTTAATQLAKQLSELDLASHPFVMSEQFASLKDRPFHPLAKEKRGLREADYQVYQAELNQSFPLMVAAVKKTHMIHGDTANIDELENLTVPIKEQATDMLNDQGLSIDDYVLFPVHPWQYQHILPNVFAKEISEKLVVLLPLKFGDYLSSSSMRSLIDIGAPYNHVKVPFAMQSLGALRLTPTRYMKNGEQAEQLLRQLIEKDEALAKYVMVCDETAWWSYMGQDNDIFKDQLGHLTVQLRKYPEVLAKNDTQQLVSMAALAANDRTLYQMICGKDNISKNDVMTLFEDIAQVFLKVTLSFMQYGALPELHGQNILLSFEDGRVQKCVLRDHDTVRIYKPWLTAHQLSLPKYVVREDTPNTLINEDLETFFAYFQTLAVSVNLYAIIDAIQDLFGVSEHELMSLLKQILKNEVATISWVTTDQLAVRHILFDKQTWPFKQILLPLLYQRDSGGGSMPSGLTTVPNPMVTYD
Procedure: To assess the potential recognition of citryl-Dap as a substrate for SbnF or SbnC, this intermediate was formed as described above except that Dae was replaced with 50 mM Dap instead. For each reaction, a duplicate control reaction was prepared in which the enzyme was previously inactivated by heating at 100° C. for 10 minutes. All reactions described above were incubated at room temperature in the dark for 1 hour before addition of 300 μL stopping solution which consisted of 10% (w/v) FeCl3 and 3.3% (w/v) trichloroacetic acid in 0.7 M HCl. Reactions were centrifuged at 20 000×g for 5 minutes to remove precipitate and the formation of ferric hydroxamate was detected spectrophotometrically at 540 nm. Relative absorbance values reported in this study were calculated by subtracting the absorbance of the control (boiled enzyme) reactions from the absorbance of experimental reactions.

[4] = system: S. aureus SbnA mutant; assay: growth culture assay, compounds added to overcome iron-restricted growth defect of SbnA mutant; assay type: cell-based; settings: compound added to growth media; data not shown
Procedure: (§1) Using SbnA and SbnB mutants in growth culture assays, compounds were added to the growth media and tested for the ability to overcome the iron-restricted phenotype.

[5] = system: S. aureus SbnB mutant; assay type: cell-based; settings: compound added to growth media
Procedure: as §1

[6] = system: SirA mutant; assay: disc growth assay with cell-free synthesized staphyloferrin A, SirA mutant; assay type: cell-based, S. aureus; settings: paper disk on agar plate, 37° C. for 24 hours
Procedure: (§2) Growth radius was measured around the disc after incubation of plates at 37° C. for 24 hours.

[7] = system: Hts mutant; assay: disc growth assay with cell-free synthesized staphyloferrin A, Hts mutant; assay type: cell-based, S. aureus; settings: paper disk on agar plate, 37° C. for 24 hours
Procedure: as §2

[8] = system: wildtype S. aureus; assay: disc growth assay with cell-free synthesized staphyloferrin A, wildtype; assay type: cell-based; settings: paper disk on agar plate, 37° C. for 24 hours
Procedure: as §2

[9] = system: HtsSir mutant; assay: disc growth assay with cell-free synthesized staphyloferrin A, HtsSir mutant; assay type: cell-based, S. aureus; settings: paper disk on agar plate, 37° C. for 24 hours
Procedure: as §2

[10] = system: S. aureus; assay: promotion of iron-starved growth of S. aureus; assay type: cell-based; settings: SbnE reaction product; data not shown
Procedure: Siderophore plate bioassays were performed as described (Beasley et al., 2009). Growth promotion, as measured by the diameter of the growth halo around each disk, was determined after 36 h incubation at 37° C.

[11] = chrome azurol S (CAS) assay of iron chelating / siderophore activity; settings: SbnE reaction product
Text: Strains of S. aureus containing complete sbn operon deletions (i.e. deleted for all of sbnA through sbnI genes) were constructed. In S. aureus Newman background, the sbn deletion strain was called H1331 whereas in RN6390 background, it was called H1324. […] Supplementation of serum growth media with iron obviated the growth defect of H1331 (FIG. 1, inset), and suppressed siderophore production in both Newman and H1331 (FIG. 2). […] To ensure that this was not due to a strain-specific phenomenon, all experiments described above were repeated using instead the RN6390 genetic background (i.e. RN6390 vs. H1324). Equivalent results were obtained (data not shown).
To measure levels of siderophore activity, chrome azurol S (CAS) shuttle solution was prepared as described. In the case of in vitro synthesized staphyloferrin B, 50 μL of the reaction mixture were removed and diluted in 450 μL of deionized water followed by 500 μL of CAS shuttle solution in a 1 ml spectrophotometer cuvette. The mixture was then incubated in the dark for 45 minutes. Siderophore quantification and absorbance readings were performed as described (Beasley et al., 2009).

[12] = system: siderophore-deficient S. aureus (ΔsfaΔsbn); assay: iron-starved growth of siderophore-deficient S. aureus with in vitro synthesized staphyloferrin B; assay type: cell-based; settings: enzymatic reaction material from complete reactions, increasing amounts
Procedure: Bacteria were cultured for 12 hours in TMS broth then 12 hours in TMS broth containing 100 μM 2,2′-dipyridyl (Sigma-Aldrich). Cells were washed twice in saline, and diluted 1:100 into 60% horse serum (Sigma-Aldrich)—40% TMS broth. For iron-replete media, 50 μM FeCl3 was included. Cultures were grown under constant, medium amplitude shaking in a Bioscreen C machine (Growth Curves, USA). Optical density was measured at 600 nm every 30 min. However, for clarity of growth curve figures, data are shown only at 2-hour intervals.
This staphyloferrin B-dependent growth promotion was mediated by the ABC transporter SirABC (FIG. 14B), which is encoded by the sirABC operon divergently transcribed from the sbn operon (FIG. 13A).

[13] = system: HtsA; assay: heme binding to purified HtsA (absorption spectra); set-up: species or system S. aureus; settings: in comparison to IsdE
Text: FIG. 10 illustrates the absorption spectra of purified IsdE, HtsA and SirA proteins in the absence of heme (A) and on exposure to heme (B);
In liquid growth assays, no attenuation of the htsABC deletion mutant, H1665, when grown on heme as a sole iron source (data not shown) was observed.

With `O=C(O)CCC(=O)C(=O)O` [α-KG, α-ketoglutarate] the “activity of SbnF towards carboxylic acid substrate” value [1] was “not”, the “activity of SbnE towards carboxylic acid substrate” value [2] was “not” and the “activity of SbnC towards carboxylic acid substrate” value [3] was “activates”.
With `NCC(N)C(=O)O` (stereo not drawn) [2,3-diamonpropionate, 2,3-diaminopropionate] the “overcoming the iron-restricted growth defect of the SbnA mutant” value [4] was “can be overcome” and the “overcoming the iron-restricted growth defect of the SbnB mutant” value [5] was “can be overcome”.
For `O=C(O)CC(O)(CC(=O)NCCC[C@@H](NC(=O)CC(O)(CC(=O)O)C(=O)O)C(=O)O)C(=O)O` (stereo partly drawn) [Staphyloferrin A, staphyloferrin A], the “growth promotion of SirA mutant” value [6] was “promoted growth”, the “growth promotion of Hts mutant” value [7] was “did not promote growth” and the “growth promotion of wildtype S. aureus” value [8] was “promoted growth”. The “growth promotion of HtsSir mutant” value [9] was “did not promote growth”.
With `NC(CNC(=O)CC(O)(CC(=O)O)C(=O)O)C(=O)O` (stereo not drawn) [β-citryl-Dap intermediate] the “promotion of iron-starved growth of S. aureus” value [10] was “unable to promote”, the “reaction with CAS reagent” value [11] was “reacted strongly” and the “activity of SbnF towards carboxylic acid substrate” value [1] was “did not react”.
With `N[C@@H](CNC(=O)C[C@@](O)(CC(=O)NCCNC(=O)CCC(=O)C(=O)O)C(=O)O)C(=O)O` [staphyloferrin B] the “promotion of iron-starved growth of siderophore-deficient S. aureus (ΔsfaΔsbn)” value [12] was “readily promote the iron-starved growth; also recorded: reaching levels comparable to growth in the presence of iron”.
With `NCCNC(=O)CC(O)(CC(=O)O)C(=O)O` (stereo not drawn) [citryl-Dae] the “activity of SbnF towards carboxylic acid substrate” value [1] was “high levels of activity”.
In the case of `O=C(O)CC(O)(CC(=O)O)C(=O)O` [citrate], the “activity of SbnF towards carboxylic acid substrate” value [1] is reported as “small level of activity” and the “activity of SbnE towards carboxylic acid substrate” value [2] is reported as “high level of specific activity”.
For `C=CC1=C(C)c2cc3[n-]c(cc4[n-]c(cc5nc(cc1n2)C(C)=C5C=C)c(C)c4CCC(=O)O)c(CCC(=O)O)c3C.[Fe+2]` [heme], the “heme association with purified HtsA” value [13] was “little to no heme would associate”.
With `O=C(O)[C@@H]1CCCN1` [proline] the “overcoming the iron-restricted growth defect of the SbnB mutant” value [5] was “unable to overcome”.
